Results: patent publication US20210330861A1, “ANTIMICROBIAL COATING COMPOSITIONS” (BIOCANT - CENTRO DE INOVAÇÃO EM BIOTECNOLOGIA, priority 2012, published 2021)
Ends that are not written are not given here.

Assays:
[1] = system: HUVEC; assay: Soluble CM peptide interaction with cells, MTT assay; type: cell-based, human; details: 24 h contact with soluble peptide
Method: Two human cell types such as human endothelial umbilical vein cells (HUVEC) as a model for vascularized tissues and normal dermal human fibroblasts (NDHF) one of the most common cell type present in human connective tissue were used to evaluate the cytotoxicity induced by CM peptide immobilized surfaces. HUVECs (preferably, Lonza, Cat. Number CC-2517, Walkersville, Md., USA) were cultured using endothelial growth factor-2 media (EGM-2), bullet kit media (preferably, Lonza, Cat. Number CC-3156) for at least 24 h prior to further use. Passages below six were used for all experiments.
HUVEC and NDHF cells were cultured as previously mentioned and platted at a density of 4.2×10^3 cells/cm2 in 24-well plates. Cells were allowed to grow 24 h prior to any experiments performed. Different concentrations of CM peptide solutions (50, 30, 20, 10, 5, 2.5 and 1 μg/mL) were incubated with both cells for 24 hr to evaluate the cytotoxicity effect of CM peptides using MTT cell metabolic activity assay.
Initially cells were washed with warm phosphate buffer saline (PBS). […] Absorbance was measured at 540 nm with reference to 670 nm in a UV-visible spectrophotometer (SynergyMx from Biotek Instruments, Winooski, Vt., United States) (I don't understand by reference).

[2] = system: E. coli; assay: Antimicrobial activity testing of peptide capped gold nanoparticles and peptide in bacterial suspension (colony count); type: cell-based
Method: (§1) S. aureus and E. coli were grown at 37° C. and maintained on LB plates (preferably, Luria-Bertani broth with 1.5% agar). Bacteria were also grown in LB media for overnight at 37° C. and cell counts were quantified by OD 600 measurements. Different amounts of peptide capped gold nanoparticles, peptide (5-10 μg/mL) and HEPES reduced gold nanoparticles (10 μg/mL) were added into bacterial suspensions ([…]) in presence of 10% human serum and incubated for 4 h at 37° C. 100 μL aliquots were taken out from the respective suspensions at 2 h intervals and diluted in PBS buffer to give […] and plated on LB agar plates followed by incubation at 37° C. Colonies were counted after 24 h of incubation. In another experiments, citric acid reduced gold nanoparticles were functionalized with 1 mg/mL mPEG-thiol (5 kDa). Gold nanoparticles were synthesized using citric acid as described previously (11). PEG and CMC peptide coated gold nanoparticles were incubated with 10% human serum for 2 hr at 4° C. followed by centrifugation at 14000 rpm to discard free human serum. Similarly, to study protease degradation, CMC coated gold nanoparticles and bare CMC peptides were treated with 1 mg/mL trypsin (phosphate buffer pH 8) for 2 h at 37° C. After 2 h of reaction, the nanoparticle solution was subjected to centrifugation to remove trypsin. Antimicrobial test was performed with human serum and trypsin treated peptide capped gold nanoparticles against E. coli.

[3] = system: S. aureus; assay: as above; type: cell-based; details: 10 μg/mL, after 4 hr of incubation, 10% human serum
Method: as §1

[4] = Zeta potential of gold nanoparticles; type: physicochemical; details: after centrifugation and redispersion in HEPES, room temperature
Method: The synthesized gold nanoparticle solutions were centrifuged at 14000 rpm followed by washing with mill-Q water to remove unreacted peptides and HEPES. The centrifuged gold nanoparticles were frozen and fridge dried at 223 K using . . . Thermogravimetric analysis (TGA) of peptide capped gold nanoparticles and gold nanoparticles synthesized without peptides was performed using over a temperature range of 30-600° C. at a heating rate of 10° C./min in presence of N2 gas. The binding of peptide on gold nanoparticle surface was analyzed, preferably by FTIR spectroscopy in ATR mode using JASCO spectrophotometer at 4 cm-1 resolutions with 64 scans. Zeta (ζ) potential of the synthesized gold nanoparticles after centrifugation and redispersion in HEPES were measured, preferably, using Brukerheaven instrument at room temperature.

| Substance | concentration at which negative influence on metabolic activity was also detected (MTT) [1] | killing of bacteria ([2]; 10 μg/mL, after 4 hr of incubation, 10% human serum) | incubation time to kill bacteria ([2]; absence of human serum (FIG. 9)) | antimicrobial activity after trypsin treatment ([2]; treated with 1 mg/mL trypsin for 2 h at 37° C.) | killing of bacteria [3] | ζ potential (mV) [4] |
| --- | --- | --- | --- | --- | --- | --- |
| Cecropin-mellitin [soluble CM peptide] | 1000 ng/mL | – | – | – | – | – |
| KWKLFKKIGAVLKVLC [CMC peptide, KWKLFKKIGAVLKVLC] | – | reduced activity | 60 min | did not show any antimicrobial activity | reduced activity | +23±1 mV |
